This passage reports T/C results from PubChem BioAssay AID274 (DTP/NCI, 2004).

Where “and” joins values, the source holds several entries; their conditions need not be identical. Equal entries are not always repeated. Inconclusive results and toxic doses are left out.

This experiment deals with BDF1 mice, Lewis lung carcinoma iv, survival T/C. As to the kind of experiment: NCI In Vivo Anticancer Drug Screen. Data for tumor model Lewis Lung Carcinoma (intravenous) in B6D2F1 (BDF1) mice. As to conditions: endpoint: median survival time, higher = longer survival. How it is done:
The antitumor activity of compounds was measured in mice bearing transplantable tumors. Survival or tumor size were measured and the results are expressed as the measurement made in the treated group (T) divided by the measurement made in the vehicle treated control group (C). The tumor model used in this assay is Lewis Lung Carcinoma (intravenous) in B6D2F1 (BDF1) mice

The mark [1] stands for this setting: dose: 50.0 mg/kg/injection, schedule: Q01DX009 (ip), vehicle: saline.
Setting [2] is: dose: 100.0 mg/kg/injection, schedule: Q01DX009 (ip), vehicle: saline.
The mark [3] stands for this setting: dose: 200.0 mg/kg/injection, schedule: Q01DX009 (ip), vehicle: saline.
The mark [4] stands for this setting: dose: 50.0 mg/kg/injection, schedule: Q01DX009 (ip), vehicle: saline with Tween-80.
[5] abbreviates: dose: 100.0 mg/kg/injection, schedule: Q01DX009 (ip), vehicle: saline with Tween-80.
[6] abbreviates: dose: 200.0 mg/kg/injection, schedule: Q01DX009 (ip), vehicle: saline with Tween-80.
Setting [7] is: dose: 25.0 mg/kg/injection, schedule: Q01DX009 (ip), vehicle: saline with Tween-80.
Setting [8] is: dose: 12.5 mg/kg/injection, schedule: Q01DX009 (ip), vehicle: saline with Tween-80.

As to `O=C1C=CC(=O)O1` (tested in a mixture with another compound), the T/C (dose: 25.0 mg/kg/injection, schedule: Q01DX009 (ip), vehicle: saline) was 101 % of control; the T/C under setting [1] was 94 % of control; the T/C under setting [2] is 103 % of control; the T/C under setting [3] is 95 % of control.
Regarding `Cc1ccc(Cl)c2ccccc12`, the T/C was 98 % of control under setting [4], 98 % of control under setting [5] and 107 % of control under setting [6].
On to `CC(C)n1cnc2c(Cl)ncnc21`, for which the T/C is 113 % of control under setting [7] and 95 % of control under setting [4].
Turning to `CC1(C)OC1CS(=O)c1ccccc1` (stereo not drawn), the T/C is 105 % of control under setting [8]; 99 % of control under setting [7]; 91 % of control under setting [4]; 96 % of control under setting [5]; 95 % of control under setting [6]; 114 % of control (dose: 400.0 mg/kg/injection, schedule: Q01DX009 (ip), vehicle: saline with Tween-80).
Take `CSc1ccc2c(c1)C(N1CCN(C)CC1)Cc1ccccc1S2` (stereo not drawn): the T/C (dose: 1.56 mg/kg/injection, schedule: Q01DX009 (ip), vehicle: saline with Tween-80) is 102 % of control.
Turning to `Cc1c(N)nc([C@H](CC(N)=O)NC[C@H](N)C(N)=O)nc1C(=O)N[C@H](C(=O)N[C@H](C)[C@@H](O)[C@H](C)C(=O)N[C@H](C(=O)NCCc1nc(-c2nc(C(=O)NCCC[S+](C)C)cs2)cs1)[C@@H](C)O)C(OC1OC(CO)C(O)C(O)C1OC1OC(CO)C(O)C(OC(N)=O)C1O)c1cnc[nH]1` (stereo partly drawn), the T/C was 113 % of control (dose: 2.0 mg/kg/injection, schedule: Q01DX009 (ip), vehicle: saline); 115 % of control (dose: 4.0 mg/kg/injection, schedule: Q01DX009 (ip), vehicle: saline); 105 % of control and 115 % of control (dose: 12.0 mg/kg/injection, schedule: Q04DX003 (ip), vehicle: saline); 115 % of control (2×) and 116 % of control (dose: 18.0 mg/kg/injection, schedule: Q04DX003 (ip), vehicle: saline); 109 % of control (dose: 27.0 mg/kg/injection, schedule: Q04DX003 (ip), vehicle: saline); 113 % of control (dose: 40.0 mg/kg/injection, schedule: Q04DX003 (ip), vehicle: saline). Moreover, the T/C (dose: 60.0 mg/kg/injection, schedule: Q04DX003 (ip), vehicle: saline) was 115 % of control.
For `C/C=C/C=C/c1cc2cc3c(c(O)c2c(=O)[nH]1)C1(CC3)C(O)=c2c(=O)c3c(=O)cc(OC)c(=O)c=3c(=O)c2=C1O` (stereo not drawn), the T/C is 97 % of control (dose: 0.06 mg/kg/injection, schedule: Q01DX009 (ip), vehicle: DMSO); 102 % of control (dose: 0.12 mg/kg/injection, schedule: Q01DX009 (ip), vehicle: DMSO); 95 % of control and 101 % of control (dose: 0.25 mg/kg/injection, schedule: Q01DX009 (ip), vehicle: DMSO); 102 % of control (dose: 0.5 mg/kg/injection, schedule: Q01DX009 (ip), vehicle: DMSO); 102 % of control (dose: 16.0 micrograms/kg/injection, schedule: Q01DX009 (ip), vehicle: DMSO); 93 % of control (dose: 31.0 micrograms/kg/injection, schedule: Q01DX009 (ip), vehicle: DMSO). The T/C is, setting by setting: (dose: 62.0 micrograms/kg/injection, schedule: Q01DX009 (ip), vehicle: DMSO) 91 % of control; (dose: 125.0 micrograms/kg/injection, schedule: Q01DX009 (ip), vehicle: DMSO) 102 % of control.
Consider `CCS(=O)(=O)OCCCCOS(=O)(=O)CC`, for which the T/C reads like this: (dose: 3.13 mg/kg/injection, schedule: Q01DX009 (ip), vehicle: saline) 99 % of control; (dose: 6.25 mg/kg/injection, schedule: Q01DX009 (ip), vehicle: saline) 103 % of control.
As to `O=C1N=C(Oc2ccccc2)SC1=O`, the T/C was 100 % of control and 109 % of control under setting [8]; 97 % of control under setting [7]; 94 % of control and 102 % of control under setting [4]; 100 % of control under setting [5].
Consider `CC[N](CC)[Ge]([CH2]C)[CH2]C.CC[N](CC)[Ge]([CH2]C)[CH2]C`, for which the T/C (dose: 3.12 mg/kg/injection, schedule: Q01DX009 (ip), vehicle: suspension in saline) was 113 % of control; the T/C (dose: 6.25 mg/kg/injection, schedule: Q01DX009 (ip), vehicle: suspension in saline) was 95 % of control; the T/C (dose: 12.5 mg/kg/injection, schedule: Q01DX009 (ip), vehicle: suspension in saline) is 96 % of control; the T/C (dose: 25.0 mg/kg/injection, schedule: Q01DX009 (ip), vehicle: suspension in saline) is 106 % of control; the T/C (dose: 50.0 mg/kg/injection, schedule: Q01DX009 (ip), vehicle: suspension in saline) was 100 % of control.
Turning to `Nc1nc(=S)c2ncn(C3OC(COC(=O)c4ccc(Cl)cc4)C(OC(=O)c4ccc(Cl)cc4)C3OC(=O)c3ccc(Cl)cc3)c2[nH]1` (stereo not drawn), the T/C (dose: 18.75 mg/kg/injection, schedule: Q01DX009 (ip), vehicle: Klucel (hydroxypropylcellulose) (HPC)) is 103 % of control; the T/C (dose: 37.5 mg/kg/injection, schedule: Q01DX009 (ip), vehicle: Klucel (hydroxypropylcellulose) (HPC)) is 106 % of control; the T/C (dose: 150.0 mg/kg/injection, schedule: Q01DX009 (ip), vehicle: Klucel (hydroxypropylcellulose) (HPC)) is 89 % of control.
As to `O=c1cc[nH]c(=O)[nH]1`, the T/C (dose: 32.0 mg/kg/injection, schedule: Q01DX009 (ip), vehicle: Klucel (hydroxypropylcellulose) (HPC)) was 105 % of control; the T/C (dose: 64.0 mg/kg/injection, schedule: Q01DX009 (ip), vehicle: Klucel (hydroxypropylcellulose) (HPC)) is 96 % of control; the T/C (dose: 128.0 mg/kg/injection, schedule: Q01DX009 (ip), vehicle: Klucel (hydroxypropylcellulose) (HPC)) was 102 % of control; the T/C (dose: 256.0 mg/kg/injection, schedule: Q01DX009 (ip), vehicle: Klucel (hydroxypropylcellulose) (HPC)) is 86 % of control; the T/C (dose: 512.0 mg/kg/injection, schedule: Q01DX009 (ip), vehicle: Klucel (hydroxypropylcellulose) (HPC)) is 111 % of control.
On to `O=NN(CCCl)C(=O)NC1[C@H](O)CCC[C@@H]1O` (stereo partly drawn), for which the T/C reads like this: (dose: 0.62 mg/kg/injection, schedule: Q01DX009 (ip), vehicle: saline) 105 % of control; (dose: 1.25 mg/kg/injection, schedule: Q01DX009 (ip), vehicle: saline) 120 % of control; (dose: 2.5 mg/kg/injection, schedule: Q01DX009 (ip), vehicle: saline) 159 % of control; (dose: 5.0 mg/kg/injection, schedule: Q01DX009 (ip), vehicle: saline) 278 % of control.
As for `CCCC(=O)Oc1ccc(/C=N/NC(N)=S)nc1`, the T/C was 104 % of control and 109 % of control under setting [8]; 109 % of control under setting [7]; 96 % of control and 109 % of control under setting [4]; 97 % of control and 104 % of control under setting [5]; 120 % of control under setting [6].
Regarding `Nc1n[nH]c(N)n1`, the T/C under setting [2] is 90 % of control; the T/C under setting [3] was 103 % of control; the T/C (dose: 400.0 mg/kg/injection, schedule: Q01DX009 (ip), vehicle: saline) was 96 % of control; the T/C (dose: 800.0 mg/kg/injection, schedule: Q01DX009 (ip), vehicle: saline) was 119 % of control.
For `CC(=O)NC(C=O)OCC=O` (stereo not drawn), the T/C by setting is: (dose: 6.25 mg/kg/injection, schedule: Q01DX009 (ip), vehicle: water) 101 % of control; (dose: 12.5 mg/kg/injection, schedule: Q01DX009 (ip), vehicle: water) 110 % of control; (dose: 25.0 mg/kg/injection, schedule: Q01DX009 (ip), vehicle: water) 102 % of control; (dose: 50.0 mg/kg/injection, schedule: Q01DX009 (ip), vehicle: water) 111 % of control; (dose: 100.0 mg/kg/injection, schedule: Q01DX009 (ip), vehicle: water) 106 % of control.
For the molecule `C[n+]1cccc(NC(=O)c2ccc(NC(=O)C34CCC(C(=O)Nc5ccc(C(=O)Nc6ccc[n+](C)c6)cc5)(CC3)CC4)cc2)c1`, the T/C is 93 % of control (dose: 5.0 mg/kg/injection, schedule: Q01DX009 (ip), vehicle: saline with Tween-80) and 99 % of control (dose: 10.0 mg/kg/injection, schedule: Q01DX009 (ip), vehicle: saline with Tween-80).
As to `C[CH2][Ge]([CH2]C)[CH2]C.C[CH2][Ge]([CH2]C)[CH2]C.C[CH2][Ge]([CH2]C)[O][Ge]([CH2]C)[CH2]C`, the T/C (dose: 6.25 mg/kg/injection, schedule: Q01DX009 (ip), vehicle: saline with Tween-80) is 97 % of control; the T/C under setting [8] was 96 % of control; the T/C under setting [7] is 103 % of control; the T/C under setting [4] was 100 % of control.
On to `c1cc2n(n1)CCN2`, for which the T/C was 105 % of control under setting [1], 104 % of control under setting [2] and 86 % of control under setting [3].
With `O=C1c2ccccc2C(=O)c2c3c(cc(NCCNCCO)c21)N(CCO)CCN3`, the T/C (dose: 50.0 mg/kg/injection, schedule: Q01DX009 (ip), vehicle: DMSO) is 108 % of control.
